In ChEMBL document CHEMBL5550184, “Structure-activity relationships of middle-size cyclic peptides, KRAS inhibitors derived from an mRNA display” (Bioorg Med Chem, 2024):
Starred links: 1 amine or outer side, 2 acyl side, 3 side chain; linkers in the order of their positions; H or OH if unused. Positions of bridges follow the written chain, without caps; N, C: chain ends. Non-standard residues stand in square brackets, D forms with d. Residues, ends and D or L forms follow the SMILES beside them. *: point of attachment. X2 = CN([C@@H](CC(=O)[*:2])C(=O)n1cccc1)[*:1]; NMePhe(4-Cl) = CN[C@@H](Cc1ccc(Cl)cc1)C(=O)O; X1 = O=C([C@H](CC(=O)[*:2])N[*:1])n1cccc1; Phe(3-Cl) = N[C@@H](Cc1cccc(Cl)c1)C(=O)O; NMeCha = CN[C@@H](CC1CCCCC1)C(=O)O; NMeF = CN[C@@H](Cc1ccccc1)C(=O)O; NMeI = CC[C@H](C)[C@H](NC)C(=O)O; NMeNle = CCCC[C@H](NC)C(=O)O; NMeNva = CCC[C@H](NC)C(=O)O; NMeV = CN[C@H](C(=O)O)C(C)C; NMeA = CN[C@@H](C)C(=O)O; Pyrrolidide = C1CCN(*)C1; Sar = CNCC(=O)O

What was measured:
[1] = Inhibition of biotin-tagged KRAS G12D mutant (unknown origin) to recombinant His-tagged SOS1 (unknown origin) protein-protein interaction incubated for 120 mins by AlphaLISA method; design: species or system Homo sapiens
[2] = Apparent permeability in human Caco-2 cells incubated for 180 mins by LC-MS/MS method; type: ADME, cell-based

Row | SMILES | IC50 [1] | Papp at 3 h [2]
1 | CC[C@H](C)[C@@H]1NC(=O)[C@H](C)N(C)C(=O)C[C@@H](C(=O)n2cccc2)N(C)C(=O)[C@H]([C@@H](C)CC)N(C)C(=O)[C@H](Cc2ccccc2)N(C)C(=O)[C@H](Cc2ccccc2)NC(=O)[C@H](Cc2cccc(Cl)c2)NC(=O)CN(C)C(=O)[C@H](Cc2ccc(Cl)cc2)N(C)C(=O)CN(C)C(=O)CN(C)C1=O (cyclo(F[NMeF][NMeI][X2][NMeA]I[Sar][Sar][NMePhe(4-Cl)][Sar][Phe(3-Cl)])) | 87 nM | 0.09 ×10⁻⁶ cm/s
2 | CCCC[C@H]1C(=O)N(C)[C@H](C(=O)n2cccc2)CC(=O)N(C)[C@@H](C)C(=O)N[C@@H]([C@@H](C)CC)C(=O)N(C)CC(=O)N(C)CC(=O)N(C)[C@@H](Cc2ccc(Cl)cc2)C(=O)N(C)CC(=O)N[C@@H](Cc2cccc(Cl)c2)C(=O)N[C@@H](Cc2ccccc2)C(=O)N(C)[C@@H](Cc2ccccc2)C(=O)N1C (cyclo(F[NMeF][NMeNle][X2][NMeA]I[Sar][Sar][NMePhe(4-Cl)][Sar][Phe(3-Cl)])) | 270 nM | 0.09 ×10⁻⁶ cm/s
3 | CC[C@H](C)[C@@H]1NC(=O)[C@H](C)N(C)C(=O)C[C@@H](C(=O)n2cccc2)N(C)C(=O)[C@H](C(C)C)N(C)C(=O)[C@H](Cc2ccccc2)N(C)C(=O)[C@H](Cc2ccccc2)NC(=O)[C@H](Cc2cccc(Cl)c2)NC(=O)CN(C)C(=O)[C@H](Cc2ccc(Cl)cc2)N(C)C(=O)CN(C)C(=O)CN(C)C1=O (cyclo(F[NMeF][NMeV][X2][NMeA]I[Sar][Sar][NMePhe(4-Cl)][Sar][Phe(3-Cl)])) | 70 nM | 0.11 ×10⁻⁶ cm/s

Now from value to compound:

Row | IC50 [1] | Papp at 3 h [2] | SMILES
4 | 54 nM |  | CC[C@H](C)[C@@H]1NC(=O)[C@H](C)N(C)C(=O)C[C@@H](C(=O)N2CCCC2)NC(=O)[C@H](C(C)C)N(C)C(=O)[C@H](Cc2ccccc2)N(C)C(=O)[C@H](Cc2c[nH]c3ccccc23)NC(=O)[C@H](Cc2cccc(Cl)c2)NC(=O)CN(C)C(=O)[C@H](Cc2ccc(Cl)cc2)N(C)C(=O)CN(C)C(=O)CN(C)C1=O ([NMeA]I[Sar][Sar][NMePhe(4-Cl)][Sar][Phe(3-Cl)]W[NMeF][NMeV]D-Pyrrolidide; lactam N-11)
5 | > 5000 nM | 0.1 ×10⁻⁶ cm/s | CC[C@H](C)[C@@H]1NC(=O)[C@H](C)N(C)C(=O)C[C@@H](C(=O)n2cccc2)NC(=O)[C@H](C)N(C)C(=O)[C@H](Cc2ccccc2)N(C)C(=O)[C@H](Cc2ccccc2)NC(=O)[C@H](Cc2cccc(Cl)c2)NC(=O)CN(C)C(=O)[C@H](Cc2ccc(Cl)cc2)N(C)C(=O)CN(C)C(=O)CN(C)C1=O (cyclo(F[NMeF][NMeA][X1][NMeA]I[Sar][Sar][NMePhe(4-Cl)][Sar][Phe(3-Cl)]))
6 | 670 nM | 0.07 ×10⁻⁶ cm/s | CC[C@H](C)[C@@H]1NC(=O)[C@H](C)N(C)C(=O)C[C@@H](C(=O)n2cccc2)NC(=O)[C@H](CC2CCCCC2)N(C)C(=O)[C@H](Cc2ccccc2)N(C)C(=O)[C@H](Cc2ccccc2)NC(=O)[C@H](Cc2cccc(Cl)c2)NC(=O)CN(C)C(=O)[C@H](Cc2ccc(Cl)cc2)N(C)C(=O)CN(C)C(=O)CN(C)C1=O (cyclo(F[NMeF][NMeCha][X1][NMeA]I[Sar][Sar][NMePhe(4-Cl)][Sar][Phe(3-Cl)]))
7 | 97 nM | 0.14 ×10⁻⁶ cm/s | CCC[C@H]1C(=O)N(C)[C@H](C(=O)n2cccc2)CC(=O)N(C)[C@@H](C)C(=O)N[C@@H]([C@@H](C)CC)C(=O)N(C)CC(=O)N(C)CC(=O)N(C)[C@@H](Cc2ccc(Cl)cc2)C(=O)N(C)CC(=O)N[C@@H](Cc2cccc(Cl)c2)C(=O)N[C@@H](Cc2ccccc2)C(=O)N(C)[C@@H](Cc2ccccc2)C(=O)N1C (cyclo(F[NMeF][NMeNva][X2][NMeA]I[Sar][Sar][NMePhe(4-Cl)][Sar][Phe(3-Cl)]))
